{"source": "patent US12053523B2", "about": "“Compositions comprising chemotherapeutic agents and checkpoint inhibitors and methods of use” (NORTH CAROLINA STATE UNIVERSITY, priority 2017, dated 2024)", "key": {"[1]": {"experiment": "GEM and aPDL1 release from PVA-TSPBA hydrogels", "type": "physicochemical", "details": "37° C.", "protocol": "FIGS. 1A, 1B, 1C, 1D, 1E, and 1F show a schematic and characterization of in situ formed reactive oxygen species (ROS)-responsive PVA-TSPBA scaffold. […] Scale bar, 0.5 μm. Inset: a zoom-in image of the scaffold. Scale bar, 0.1 μm. […] Scale bar, 25 μm. […] FIGS. 1E and IF show cumulative release profiles of GEM (1e) and aPDL1 (1f) from hydrogels when incubated with PBS with or without H2O2 (1 mM).\nThe TSPBA can be oxidized and hydrolyzed when exposed to H2O2 in the TME, leading to the dissociation of the polymeric scaffold and the release of PVA and payloads. To verify the ROS-sensitive degradability of the hydrogels, samples were immersed in phosphate-buffered saline (PBS) containing […] H2O2 at 37° C. […] The release profiles of GEM and aPD-L1 were quantified using high-performance liquid chromatography (HPLC) and enzyme-linked immunosorbent assay (ELISA), respectively. […] The release pattern was further examined in vivo after the intratumor injection of the drug-loaded scaffolds in the B16F10 mouse model. […] These distinct release dynamics facilitated the delivery of GEM and aPD-L1 into the TME for the intended sequential effects.\nRelease studies were performed at 37° C. with constant agitation in PBS. […] The released GEM was analyzed by HPLC and the antibody release was determined by Rat IgG total ELISA kit (eBioscience)."}, "B16F10 cancer cells": {"tested_on": "B16F10 cancer cells", "experiment": "Treatment of B16F10 cancer cells in vitro with GEM (flow cytometry, immunofluorescence, western blot)", "type": "cell-based, mouse", "protocol": "FIGS. 7A and 7B show the effects of GEM to cancer cells in vitro.\nCirculating type 1 T helper (Th1) cytokines were also measured before and after GEM@Gel implantation (FIG. 6g).\n(§1) The mouse melanoma cell line B16F10 and mouse mammary carcinoma cell line 4T1 were purchased from the American Type Culture Collection. B16F10-luc-GFP and 4T1-luc-GFP cells were gifts from Dr. Leaf Huang at the University of North Carolina at Chapel Hill. B16F10 cells were maintained in Dulbecco's Modified Eagle Medium (Gibco, Invitrogen) supplemented with 10% fetal bovine serum (Invitrogen, Carlsbad, CA), 100 U/mL penicillin (Invitrogen), and 100 […] (Invitrogen). 4T1 cells were maintained in RPMI-1640 Medium (Gibco, Invitrogen) supplemented with 10% fetal bovine serum (Invitrogen, Carlsbad, CA), 100 U/mL penicillin (Invitrogen), and 100 […] (Invitrogen). Master and working cell banks were generated immediately upon receipt. The third and fourth passages were used for the experiments. Cells were tested every three months to exclude the presence of mycoplasma. Authentication of cells was not performed after receipt."}, "4T1 cancer cells": {"tested_on": "4T1 cancer cells", "experiment": "Effects of GEM in 4T1 cells in vitro (PD-L1 by flow cytometry)", "type": "cell-based, mouse", "details": "GEM 0, 1, 2, 5, 10 μM for 48 hours, remaining live cells; hydrochloride", "protocol": "The data are shown as mean±SD. Error bars are based on at least triplicate measurements. P value: *, P<0.05.\n4T1 cells were reported to express low levels of PD-L1. […] For in vivo study, 4T1 were inoculated subcutaneously into the right flank of female BABL/c mice. After 7 days, the mice bearing 4T1 tumors were treated with GEM@Gel (200 μL, 10% w/w) (GEM: 5 mg/kg), aPD-L1@Gel (aPDL1: 50 μg per mouse) or GEM-aPD-L1@Gel (aPD-L1: 50 μg per mouse, GEM: 5 mg/kg).\nas §1, with “Authentication of cells was not performed after receipt.” left out"}}, "note": "Entries after “also recorded” stand apart in the source; their conditions may differ. Where a name gives a salt, the structure may show the parent alone."}
{"compound": "Nc1ccn([C@@H]2O[C@H](CO)[C@@H](O)C2(F)F)c(=O)n1", "note": "[GEM, Gemcitabine hydrochloride]", "values": [{"measurement": "Release from the hydrogel in H2O2 solution compared to control PBS", "setting": "[1]; H2O2 1 mM vs PBS", "value": "in a triggered manner"}, {"measurement": "Release of GEM from the hydrogel", "setting": "[1]; H2O2 solution (1 mM) in PBS, HPLC", "value": "great majority of GEM was released within one day"}, {"measurement": "PD-L1 on surviving B16F10 cells", "setting": "B16F10 cancer cells; GEM 5 μM, within 24 hours", "value": "significant PD-L1 upregulation"}, {"measurement": "Dose and time dependence of PD-L1 expression on B16F10 cancer cells", "setting": "B16F10 cancer cells; flow cytometry, immunofluorescence, western blot", "value": "GEM-dose- and time-dependent"}, {"measurement": "Cell death of B16F10 cancer cells", "setting": "B16F10 cancer cells; in vitro", "value": "resulted in cell death"}, {"measurement": "Expression of PD-L1 in surviving B16F10 cells", "setting": "B16F10 cancer cells; in vitro", "value": "increased expression of PD-L1"}, {"measurement": "PD-L1 expression in 4T1 cancer cells", "setting": "4T1 cancer cells", "value": "induced PD-L1 expression; also recorded: PD-L1 upregulation"}]}
